Data taken from patent US6034238A, “Heterocyclic compounds, their preparation and their use as leucocyte adhesion inhibitors and VLA-4-antagonists” (Hoechst Marion Roussel Deutschland GmbH, priority 1997, dated 2000).

These molecules were tested against T1, interaction between VCAM-1 and VLA-4 (Homo sapiens, UniProt P05556+P13612) (assay: U937/VCAM-1 cell adhesion test (adhesion of U937 cells to hVCAM-1 (1-3)-IgG)). Settings: read-out: IC50 (50% inhibition of adhesion).
T1 construct: supplied in their natural form as surface molecules on human U937 cells; host or cells: U937 (human)
Assay type: cell-based
Description: The test method used for the activity of the compounds of the formula I on the interaction between VCAM-1 and VLA-4 is an assay which is specific for this interaction. The cellular binding components, i.e., the VLA4 integrins, are supplied in their natural form as surface molecules on human U937 cells (ATCC CRL 1593), which belong to the leucocytes group. The specific binding components used are genetically engineered recombinant soluble fusion proteins, consisting of the extracytoplasmatic domain of human VCAM-1 and the constant region of a human immunoglobulin of the subclass IgG1.
Assay for the measurement of the adhesion of U937 cells (ATCC CRL 1593) to hVCAM-1 (1-3)-IgG
1. Preparation of human VCAM-1(1-3)-IgG and human CD4-IgG
A genetic construct for the expression of the extracellular domain of human VCAM-1, associated with the genetic sequence of the heavy chain of human immunoglobulin IgG1 (hinge, CH2 and CH3 regions), from Dr. Brian Seed, Massachusetts General Hospital, Boston, USA (cf. Damle and Aruffo, Proc. NatI. Acad. Sci. USA 1991, 88, 6403-6407) was employed. The soluble fusion protein hVCAM-1 (1-3)-IgG contained the three amino-terminal extracellular immunoglobulin-like domains of human VCAM-1 (Damle and Aruffo, Proc. Natl. Acad. Sci. USA 1991, 88, 6403). CD4-IgG (Zeftimeissl et al., DNA and Cell Biology 1990, 9, 347) served as a fusion protein for negative controls. The recombinant proteins were expressed as soluble proteins after DEAE/dextran-mediated DNA transfection in COS cells (ATCC CRL1651) according to standard procedures (Ausubel et al., Current Protocols in Molecular Biology, John Wiley & Sons, Inc., 1994).
2. Assay for the measurement of the adhesion of U937 cells to hVCAM-1 (1-3)-IgG
2.1 96-well microtiter test plates (Nunc Maxisorb) were incubated at room temperature for 1 hour with 100 μl/well of a goat-anti-human-IgG antibody solution (10 μg/ml in 50 mM tris, pH 9.5). After removal of the antibody solution, washing was carried out once with PBS.
2.2 150 μl/well of a blocking buffer (1% BSA in PBS) was incubated on the plates at room temperature for 0.5 hour. After removal of the blocking buffer, washing was carried out once with PBS.
2.3 100 μl per well of a cell culture supernatant of transfected COS cells was incubated on the plates at room temperature for 1.5 hours. The COS cells were transfected with a plasmid which codes for the three N-terminal immunoglobulin-like domains of VCAM-1, coupled to the Fc part of human IgG1 (hVCAM-1(1--3)-IgG). The content of hVCAM-1 (1-3)-IgG was about 0.5-1 μg/ml. After removal of the culture supernatant washing was carried out once with PBS. […]

T1 sequence (P13612 34-1032): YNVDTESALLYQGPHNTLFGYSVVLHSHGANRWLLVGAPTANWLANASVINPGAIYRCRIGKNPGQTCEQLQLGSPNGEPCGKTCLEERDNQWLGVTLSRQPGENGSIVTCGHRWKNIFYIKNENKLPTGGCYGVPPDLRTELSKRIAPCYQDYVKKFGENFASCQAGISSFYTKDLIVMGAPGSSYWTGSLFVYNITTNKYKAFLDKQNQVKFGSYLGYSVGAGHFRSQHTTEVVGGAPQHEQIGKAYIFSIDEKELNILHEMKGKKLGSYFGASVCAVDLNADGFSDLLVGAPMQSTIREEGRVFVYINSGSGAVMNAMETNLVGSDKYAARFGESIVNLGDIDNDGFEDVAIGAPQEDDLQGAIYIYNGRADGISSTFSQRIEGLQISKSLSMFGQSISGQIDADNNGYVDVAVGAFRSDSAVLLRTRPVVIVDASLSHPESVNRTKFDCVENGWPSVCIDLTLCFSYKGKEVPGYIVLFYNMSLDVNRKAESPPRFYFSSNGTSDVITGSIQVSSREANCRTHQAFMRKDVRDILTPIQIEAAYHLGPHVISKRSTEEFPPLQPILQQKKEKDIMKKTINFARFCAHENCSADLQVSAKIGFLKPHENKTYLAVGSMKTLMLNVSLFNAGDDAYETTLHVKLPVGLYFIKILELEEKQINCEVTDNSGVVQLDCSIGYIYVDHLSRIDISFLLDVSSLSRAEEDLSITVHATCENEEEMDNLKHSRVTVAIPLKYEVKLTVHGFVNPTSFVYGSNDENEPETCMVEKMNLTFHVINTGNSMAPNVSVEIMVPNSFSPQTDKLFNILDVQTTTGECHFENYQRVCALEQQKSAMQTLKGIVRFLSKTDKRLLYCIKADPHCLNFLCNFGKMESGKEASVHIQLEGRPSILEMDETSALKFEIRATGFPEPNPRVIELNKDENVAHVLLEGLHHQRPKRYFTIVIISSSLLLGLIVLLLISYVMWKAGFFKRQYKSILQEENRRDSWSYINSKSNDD
T1 sequence (P05556 21-798): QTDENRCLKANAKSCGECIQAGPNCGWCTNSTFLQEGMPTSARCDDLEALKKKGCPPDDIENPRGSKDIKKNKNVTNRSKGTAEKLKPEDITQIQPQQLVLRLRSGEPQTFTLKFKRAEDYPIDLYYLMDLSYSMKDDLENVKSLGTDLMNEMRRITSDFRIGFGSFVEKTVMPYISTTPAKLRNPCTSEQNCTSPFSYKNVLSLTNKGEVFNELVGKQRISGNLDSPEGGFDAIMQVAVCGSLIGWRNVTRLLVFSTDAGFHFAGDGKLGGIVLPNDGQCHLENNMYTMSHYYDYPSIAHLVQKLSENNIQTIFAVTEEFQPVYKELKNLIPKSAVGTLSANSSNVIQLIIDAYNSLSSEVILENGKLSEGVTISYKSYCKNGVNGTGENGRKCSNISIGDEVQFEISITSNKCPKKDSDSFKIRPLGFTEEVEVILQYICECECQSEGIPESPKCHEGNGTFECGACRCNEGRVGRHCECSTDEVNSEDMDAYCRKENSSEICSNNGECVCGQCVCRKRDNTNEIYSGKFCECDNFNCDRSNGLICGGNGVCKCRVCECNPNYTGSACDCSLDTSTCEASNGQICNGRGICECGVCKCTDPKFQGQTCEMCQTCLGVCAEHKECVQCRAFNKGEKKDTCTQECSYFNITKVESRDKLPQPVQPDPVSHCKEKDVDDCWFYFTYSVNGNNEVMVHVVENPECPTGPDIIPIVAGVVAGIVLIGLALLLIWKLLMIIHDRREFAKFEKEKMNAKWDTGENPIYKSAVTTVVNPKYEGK

IC50 [µM]	Structure (SMILES)
1.25	CC1(c2ccc(C(=N)N)cc2)C(=O)N(CC(=O)NC[C@H](NC(=O)OCC23CC4CC(CC(C4)C2)C3)C(=O)O)C(=O)N1Cc1ccccc1 (stereo partly drawn) [Example 1, (S)-3-(((R,S)-4-(4-(Amino-imino-methyl)phenyl)-3-benzyl-4-methyl-2,5-dioxoimidazolidin-1-yl)acetylamino)-2-(1-adamantylmethyloxy-carbonylamino)propionic acid]
11.5	CC1(c2ccc(C(=N)N)cc2)C(=O)N(CC(=O)NC[C@H](NC(=O)NCc2ccccc2)C(=O)O)C(=O)N1Cc1ccccc1 (stereo partly drawn) [Example 3, (S)-3-(((R,S)-4-(4-(Amino-imino-methyl)phenyl)-3-benzyl-4-methyl-2,5-dioxoimidazolidin-1-yl)acetylamino)-2-benzylaminocarbonylaminopropionic acid]
10.5	CC1(c2ccc(C(=N)N)cc2)C(=O)N(CC(=O)NC[C@H](NC(=S)NCc2ccccc2)C(=O)O)C(=O)N1Cc1ccccc1 (stereo partly drawn) [Example 4, (S)-(((R,S)-4-(4-(Amino-imino-methyl)phenyl)-3-benzyl-4-methyl-2,5-dioxoimidazolidin-1-yl)acetylamino)-2-benzylaminothiocarbonylamino-propionic acid]
0.73	CC(C)[C@H](NC(=O)[C@H](CC(=O)O)N(C)C(=O)CN1C(=O)N(Cc2ccc3ccccc3c2)C(C)(c2ccc(C(=N)N)cc2)C1=O)C(=O)N1CCOCC1 (stereo partly drawn) [Example 5, ((R,S)-4-(4-(Amino-imino-methyl)phenyl)-3-(2-naphthylmethyl)-4-methyl-2,5-dioxoimidazolidin-1-yl)acetyl-L-(N-methylaspartyl)-L-valine morpholide]
